pIC50: −log10 of the molar value. Counter-ions that a name gives are not always drawn.

Our source for the IC50 values is patent US6346527B1, “Guanidine derivatives” (Fujisawa Pharmaceutical Co., Ltd., priority 1998, dated 2002).

This experiment has as its target T1, Na^+/H^+ exchange in cells (Rattus norvegicus, UniProt P26431).
T1 construct: The cells were dissociated by gentle strokes, and the resulting suspension was filtrated through six layers of surgical gauze; from tissue; host or cells: thymus cells (thymocytes) of a male SD rat
Nature of the experiment: Inhibitory activity on Na^+/H^+ exchange in cells. Particulars: rat (male SD) thymus cells; initial increase in intracellular pH (BCECF fluorescence) after adding NaCl (final 100 mM), 37° C. The experiment is classed as cell-based. Here is the method:
[2] Inhibitory activity on Na^+/H^+ exchange in cells
Procedure was carried out according to a similar manner to the method described in Enzymology 173, 777 (1989).
Cell preparation: One male SD strain rat weighing 250-300 g was sacrificed with the blow on the head. Then, the thymus was removed into ice-cold NaCl medium (140 mM sodium chloride, 1 mM potassium chloride, 1 mM calcium chloride, 1 mM magnesium chloride, 10 mM glucose and 20 mM N-2-hydroxyethylpiperazine-N′-2-ethanesulfonic acid (HEPES)—pH 7.3), cut in small fragments, and transferred to glass homogenizer. […]
Assay: The pellet was washed with Na-free buffer (140 mM Trimethyl ammonium, 4 mM KCl, 1 mM CaCl2, 1 mM MgSO4, 1 mM NaH2PO4, 18 mM glucose, 20 mM HEPES (pH 7.4)), then incubated with 16 μM of acetoxymethyl ester of 2′, 7′-bis(2-carboxyethyl)-5,6-carboxyfluorescein (BCECF-AM, Calbiochem Co.) and 20 mM NH4Cl at 37° C. for 30 minutes. […] Intracellular pH was measured at 37° C. with a spectrofluorometer (FS100, Kowa company, Japan) using the ratio of the emission (530 nm) obtained at 490 nm excitation wavelengths. […] The BCECF fluorescence signals were calibrated by titration with 1 M 2-(N-morpholino)ethanesulfonic acid (MES) after permeabilization of the cells with 0.5% Triton.

T1 sequence (P26431 whole entry): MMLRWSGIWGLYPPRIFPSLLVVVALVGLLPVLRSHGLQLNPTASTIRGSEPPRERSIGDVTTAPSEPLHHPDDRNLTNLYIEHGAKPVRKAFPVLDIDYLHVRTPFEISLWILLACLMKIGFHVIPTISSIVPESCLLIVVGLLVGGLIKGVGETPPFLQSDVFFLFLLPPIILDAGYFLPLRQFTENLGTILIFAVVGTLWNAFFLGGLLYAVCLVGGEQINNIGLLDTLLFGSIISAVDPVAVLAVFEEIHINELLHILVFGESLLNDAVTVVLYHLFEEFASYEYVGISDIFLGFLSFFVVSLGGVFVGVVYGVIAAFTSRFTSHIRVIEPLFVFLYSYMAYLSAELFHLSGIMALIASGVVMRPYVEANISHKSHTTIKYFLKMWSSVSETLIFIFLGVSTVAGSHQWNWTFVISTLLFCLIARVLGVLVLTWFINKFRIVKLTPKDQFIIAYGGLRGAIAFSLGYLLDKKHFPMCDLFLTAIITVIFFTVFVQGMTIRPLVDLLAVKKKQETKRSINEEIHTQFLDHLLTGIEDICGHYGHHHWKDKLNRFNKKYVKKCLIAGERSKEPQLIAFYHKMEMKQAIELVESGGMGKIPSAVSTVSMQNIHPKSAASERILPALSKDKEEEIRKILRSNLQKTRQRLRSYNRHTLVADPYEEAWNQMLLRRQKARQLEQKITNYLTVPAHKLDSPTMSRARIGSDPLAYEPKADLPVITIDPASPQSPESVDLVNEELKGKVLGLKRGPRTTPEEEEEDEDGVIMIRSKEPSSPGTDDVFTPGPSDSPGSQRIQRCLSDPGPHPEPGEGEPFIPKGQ

In the case of `N=C(N)NC(=O)C1=Cc2cccc(/C=C/C(=O)O)c2OCC1` [(a), [9-[(E)-(2-Carboxyvinyl)]-2,3-dihydro-1-benzoxepin-4-carbonyl]guanidine hydrochloride], the pIC50 was above 7.00.

One may read the pIC50 as the IC50 on a negative log10 scale, so that one unit is a factor of ten. Lower therefore signals a high IC50.
